According to ChEMBL document CHEMBL1130949, “Construction of a family of biphenyl combinatorial libraries: structure-activity studies utilizing libraries of mixtures” (Bioorg Med Chem Lett, 1998):

Assay: Binding affinity against vitronectin receptor was determined

| SMILES | IC50 [µM] |
| --- | --- |
| COCC(=O)N[C@@H](CC(=O)O)C(=O)Nc1ccc(-c2ccccc2C(=O)O)cc1 | > 500 |
| CC(=O)N[C@H](CC(=O)O)C(=O)Nc1ccc(-c2ccccc2C(=O)O)cc1 | > 500 |
| CC(C)C(=O)N[C@@H](CC(=O)O)C(=O)Nc1ccc(-c2ccccc2C(=O)O)cc1 | > 500 |
| CC(=O)N[C@@H](CC(=O)O)C(=O)Nc1ccc(-c2ccc(C(=O)O)cc2)cc1 | 96 |
| CC(=O)N[C@@H](CC(=O)O)C(=O)Nc1ccc(-c2cccc(C(=O)O)c2)cc1 | 31 |
| CC(=O)N[C@@H](CC(=O)O)C(=O)Nc1cccc(-c2ccccc2C(=O)O)c1 | 46 |
| CC(=O)N[C@@H](CC(=O)O)C(=O)Nc1ccc(-c2ccccc2C(=O)O)cc1 | 52 |
| CC(=O)N[C@@H](CC(=O)O)C(=O)Nc1ccc(-c2ccccc2C(=O)N[C@@H](CCCN=C(N)N)C(=O)O)cc1 | 34 |
| CC(=O)N[C@@H](CC(=O)O)C(=O)Nc1ccc(-c2ccccc2C(N)=O)cc1 | 96 |
